Marks after values point to notes of the source that are not given here.
Columns and labels:
Format in all cases: in vivo
[1] = tested on: Puccinia recondita f. sp. tritici; test: Test G: wheat leaf rust, spray on wheat seedlings after inoculation (curative); settings: sprayed after inoculation; for pest or weed control at 200 ppm: Puccinia recondita, 96 h, read-out: Test G rating (100 = 100% disease control, 0 = no disease control)
Excerpt: General protocol for preparing test suspensions for Tests A-I: the test compounds were first dissolved in acetone in an amount equal to 3% of the final volume and then suspended at the desired concentration (in ppm) in acetone and purified water (50/50 mix by volume) containing 250 ppm of the surfactant Trem® 014 (polyhydric alcohol esters). The resulting test suspensions were then used in Tests A-I. Spraying a 200 ppm test suspension to the point of run-off on the test plants was the equivalent of a rate of 500 g/ha. […] (An asterisk “*” next to the rating value indicates a 40 ppm test suspension was used.) Wheat seedlings were inoculated with a spore suspension of Puccinia recondita f. sp. tritici (the causal agent of wheat leaf rust) and incubated in a saturated atmosphere at 20° C. for 24 h, and then moved to a growth chamber at 20° C. for 2 days. At the end of this time, the test suspension was sprayed to the point of run-off, and then the seedlings were moved to a growth chamber at 20° C. for 4 days after which time visual disease ratings were made. […] A dash (-) indicates no test results. All results are for 200 ppm except where followed by an asterisk “*”, which indicates a 40 ppm.

[2] = tested on: Puccinia recondita f. sp. tritici; test: Test H: wheat leaf rust, spray on wheat seedlings the day before inoculation; settings: sprayed before inoculation; for pest or weed control at 200 ppm: Puccinia recondita, 168 h, read-out: Test H rating (100 = 100% disease control, 0 = no disease control)
Excerpt: General protocol for preparing test suspensions for Tests A-I: the test compounds were first dissolved in acetone in an amount equal to 3% of the final volume and then suspended at the desired concentration (in ppm) in acetone and purified water (50/50 mix by volume) containing 250 ppm of the surfactant Trem® 014 (polyhydric alcohol esters). The resulting test suspensions were then used in Tests A-I. Spraying a 200 ppm test suspension to the point of run-off on the test plants was the equivalent of a rate of 500 g/ha. […] (An asterisk “*” next to the rating value indicates a 40 ppm test suspension was used.) The test suspension was sprayed to the point of run-off on wheat seedlings. The following day, the seedlings were inoculated with a spore suspension of Puccinia recondita f. sp. tritici (the causal agent of wheat leaf rust) and incubated in a saturated atmosphere at 20° C. for 24 h, and then moved to a growth chamber at 20° C. for 6 days, after which time visual disease ratings were made Results for Tests A-I are given in Table A. […] A dash (-) indicates no test results. All results are for 200 ppm except where followed by an asterisk “*”, which indicates a 40 ppm.

[3] = tested on: Erysiphe graminis f. sp. tritici; test: Test I: wheat powdery mildew, spray on wheat seedlings the day before inoculation; settings: 200 ppm test suspension; for pest or weed control at 200 ppm: Blumeria graminis, 168 h, read-out: Test I rating (100 = 100% disease control, 0 = no disease control)
Excerpt: General protocol for preparing test suspensions for Tests A-I: the test compounds were first dissolved in acetone in an amount equal to 3% of the final volume and then suspended at the desired concentration (in ppm) in acetone and purified water (50/50 mix by volume) containing 250 ppm of the surfactant Trem® 014 (polyhydric alcohol esters). The resulting test suspensions were then used in Tests A-I. Spraying a 200 ppm test suspension to the point of run-off on the test plants was the equivalent of a rate of 500 g/ha. […] (An asterisk “*” next to the rating value indicates a 40 ppm test suspension was used.) The test suspension was sprayed to the point of run-off on wheat seedlings. The following day, the seedlings were inoculated with a spore dust of Erysiphe graminis f. sp. tritici, (the causal agent of wheat powdery mildew) and incubated in a growth chamber at 20° C. for 7 days, after which time visual disease ratings were made. […] A dash (-) indicates no test results. All results are for 200 ppm except where followed by an asterisk “*”, which indicates a 40 ppm.

[4] = tested on: Septoria nodorum; test: Test E: Septoria glume blotch, spray on wheat seedlings the day before inoculation
Excerpt: General protocol for preparing test suspensions for Tests A-I: the test compounds were first dissolved in acetone in an amount equal to 3% of the final volume and then suspended at the desired concentration (in ppm) in acetone and purified water (50/50 mix by volume) containing 250 ppm of the surfactant Trem® 014 (polyhydric alcohol esters). The resulting test suspensions were then used in Tests A-I. Spraying a 200 ppm test suspension to the point of run-off on the test plants was the equivalent of a rate of 500 g/ha. […] (An asterisk “*” next to the rating value indicates a 40 ppm test suspension was used.) The test suspension was sprayed to the point of run-off on wheat seedlings. […] A dash (-) indicates no test results. All results are for 200 ppm except where followed by an asterisk “*”, which indicates a 40 ppm.

[5] = tested on: Botrytis cinerea; test: Test A: tomato Botrytis, spray on tomato seedlings the day before inoculation; settings: for pest or weed control at 200 ppm: Botrytis cinerea, 120 h, read-out: Test A rating (100 = 100% disease control, 0 = no disease control)
Excerpt: General protocol for preparing test suspensions for Tests A-I: the test compounds were first dissolved in acetone in an amount equal to 3% of the final volume and then suspended at the desired concentration (in ppm) in acetone and purified water (50/50 mix by volume) containing 250 ppm of the surfactant Trem® 014 (polyhydric alcohol esters). The resulting test suspensions were then used in Tests A-I. Spraying a 200 ppm test suspension to the point of run-off on the test plants was the equivalent of a rate of 500 g/ha. […] (An asterisk “*” next to the rating value indicates a 40 ppm test suspension was used.) The test suspension was sprayed to the point of run-off on tomato seedlings. The following day, the seedlings were inoculated with a spore suspension of Botrytis cinerea (the causal agent of tomato Botrytis) and incubated in a saturated atmosphere at 20° C. for 48 h, and then moved to a growth chamber at 24° C. for 3 additional days, after which time visual disease ratings were made. […] A dash (-) indicates no test results. All results are for 200 ppm except where followed by an asterisk “*”, which indicates a 40 ppm.

[6] = tested on: Septoria tritici; test: Test F: wheat leaf blotch, spray on wheat seedlings the day before inoculation; settings: for pest or weed control at 200 ppm: Zymoseptoria tritici, 504 h, read-out: Test F rating (100 = 100% disease control, 0 = no disease control)
Excerpt: General protocol for preparing test suspensions for Tests A-I: the test compounds were first dissolved in acetone in an amount equal to 3% of the final volume and then suspended at the desired concentration (in ppm) in acetone and purified water (50/50 mix by volume) containing 250 ppm of the surfactant Trem® 014 (polyhydric alcohol esters). The resulting test suspensions were then used in Tests A-I. Spraying a 200 ppm test suspension to the point of run-off on the test plants was the equivalent of a rate of 500 g/ha. […] (An asterisk “*” next to the rating value indicates a 40 ppm test suspension was used.) The test suspension was sprayed to the point of run-off on wheat seedlings. The following day, the seedlings were inoculated with a spore suspension of Septoria tritici (the causal agent of wheat leaf blotch) and incubated in a saturated atmosphere at 24° C. for 48 h, and then the seedlings were moved to a growth chamber at 20° C. for 19 additional days, after which time visual disease ratings were made. […] A dash (-) indicates no test results. All results are for 200 ppm except where followed by an asterisk “*”, which indicates a 40 ppm.

[7] = tested on: Alternaria solani; test: Test B: tomato early blight, spray on tomato seedlings the day before inoculation; settings: for pest or weed control at 200 ppm: Alternaria solani, 168 h, read-out: Test B rating (100 = 100% disease control, 0 = no disease control)
Excerpt: General protocol for preparing test suspensions for Tests A-I: the test compounds were first dissolved in acetone in an amount equal to 3% of the final volume and then suspended at the desired concentration (in ppm) in acetone and purified water (50/50 mix by volume) containing 250 ppm of the surfactant Trem® 014 (polyhydric alcohol esters). The resulting test suspensions were then used in Tests A-I. Spraying a 200 ppm test suspension to the point of run-off on the test plants was the equivalent of a rate of 500 g/ha. […] (An asterisk “*” next to the rating value indicates a 40 ppm test suspension was used.) The test suspension was sprayed to the point of run-off on tomato seedlings. The following day, the seedlings were inoculated with a spore suspension of Alternaria solani (the causal agent of tomato early blight) and incubated in a saturated atmosphere at 27° C. for 48 h, and then moved to a growth chamber at 20° C. for 5 days, after which time visual disease ratings were made. […] A dash (-) indicates no test results. All results are for 200 ppm except where followed by an asterisk “*”, which indicates a 40 ppm.

[8] = 40 ppm test suspension (asterisk)

| Compound | Test I rating (100 = 100% disease control, 0 = no disease control) [3] [%] | Test G rating (100 = 100% disease control, 0 = no disease control) ([1]; 200 ppm test suspension) [%] | Test H rating (100 = 100% disease control, 0 = no disease control) ([2]; 200 ppm test suspension) [%] | Test E rating (100 = 100% disease control, 0 = no disease control) ([4]; 200 ppm test suspension) [%] | Test A rating (100 = 100% disease control, 0 = no disease control) ([5]; 200 ppm test suspension) [%] | Test F rating (100 = 100% disease control, 0 = no disease control) ([6]; 200 ppm test suspension) [%] | Test B rating (100 = 100% disease control, 0 = no disease control) ([7]; 200 ppm test suspension) [%] | further results |
| --- | --- | --- | --- | --- | --- | --- | --- | --- |
| Cc1oc(=O)c(-c2ccccc2)c(-c2ccccc2Cl)c1-c1ccc(F)cc1F [Compound 31] | 0 |  |  |  |  |  |  | Test G rating (100 = 100% disease control, 0 = no disease control) [1, 8]: 96* %; Test H rating (100 = 100% disease control, 0 = no disease control) [2, 8]: 99* %; Test E rating (100 = 100% disease control, 0 = no disease control) [4, 8]: 0* %; Test A rating (100 = 100% disease control, 0 = no disease control) [5, 8]: 100* %; Test F rating (100 = 100% disease control, 0 = no disease control) [6, 8]: 98* %; Test B rating (100 = 100% disease control, 0 = no disease control) [7, 8]: 0* % |
| COc1cccc(-c2c(-c3ccc(F)cc3F)c(C)oc(=O)c2-c2ccccc2F)c1 [Compound 34] | 90 | 95 | 100 | 99 | 100 | 99 | 99 |  |
| Cc1oc(=O)c(-c2ccccc2F)c(-c2ccccc2Cl)c1-c1ccc(F)cc1F [Compound 35] | 97 |  |  |  |  |  |  | Test G rating (100 = 100% disease control, 0 = no disease control) [1, 8]: 99* %; Test H rating (100 = 100% disease control, 0 = no disease control) [2, 8]: 0* %; Test E rating (100 = 100% disease control, 0 = no disease control) [4, 8]: 0* %; Test A rating (100 = 100% disease control, 0 = no disease control) [5, 8]: 100* %; Test F rating (100 = 100% disease control, 0 = no disease control) [6, 8]: 99* %; Test B rating (100 = 100% disease control, 0 = no disease control) [7, 8]: 68* % |
| COc1cc(OC)cc(-c2c(-c3ccc(F)cc3F)c(C)oc(=O)c2-c2ccccc2)c1 [Compound 27] | 82 | 93 | 100 | 99 | 98 | 99 | 100 |  |
| COc1cc(F)c(-c2c(C)oc(=O)c(C)c2-c2c(Cl)c(OC)cc(OC)c2Cl)c(F)c1 [Compound 44] | 0 | 26 | 96 | 0 | 79 | 73 | 0 |  |
| COc1cc(OC)cc(-c2c(C)oc(=O)c(C)c2-c2ccc(F)cc2F)c1 [Compound 42, 4-(2,4-difluorophenyl)-5-(3,5-dimethoxyphenyl)-3,6-dimethyl-2H-pyran-2-one] |  |  |  |  |  |  |  | pest or weed control at 200 ppm ([1]; 200 ppm test suspension): 0%; pest or weed control at 200 ppm ([2]; 200 ppm test suspension): 100%; pest or weed control at 200 ppm [3]: 99%; pest or weed control at 200 ppm ([4]; Parastagonospora nodorum, 264 h, 200 ppm test suspension, read-out: Test E rating (100 = 100% disease control, 0 = no disease control)): 0%; pest or weed control at 200 ppm ([5]; 200 ppm test suspension): 98%; pest or weed control at 200 ppm ([6]; 200 ppm test suspension): 100%; pest or weed control at 200 ppm ([7]; 200 ppm test suspension): 0% |
| COc1cc(OC)cc(-c2c(-c3ccc(F)cc3F)c(C)oc(=O)c2-c2ccccc2F)c1 [Compound 33, 5-(2,4-difluorophenyl)-4-(3,5-dimethoxyphenyl)-3-(2-fluorophenyl)-6-methyl-2H-pyran-2-one] |  |  |  |  |  |  |  | pest or weed control at 200 ppm ([1]; 200 ppm test suspension): 99%; pest or weed control at 200 ppm ([2]; 200 ppm test suspension): 100%; pest or weed control at 200 ppm [3]: 76%; pest or weed control at 40 ppm ([4]; Parastagonospora nodorum, 264 h, 40 ppm test suspension (asterisk), read-out: Test E rating (100 = 100% disease control, 0 = no disease control)): 99%; pest or weed control at 200 ppm ([5]; 200 ppm test suspension): 99%; pest or weed control at 200 ppm ([6]; 200 ppm test suspension): 98%; pest or weed control at 200 ppm ([7]; 200 ppm test suspension): 100% |
| COc1cccc(-c2c(-c3ccccc3F)c(C)oc(=O)c2-c2ccccc2)c1 [Compound 28] | 64 | 0 | 99 | 0 | 100 | 98 | 0 |  |
